Target: T1, hexokinase II (HKII) (Homo sapiens, UniProt P52789)
T1 construct: gene HK2; recombinant HKII expressed in E. coli, first 16 aa from the N-terminal removed
T1 sequence (P52789 17-917): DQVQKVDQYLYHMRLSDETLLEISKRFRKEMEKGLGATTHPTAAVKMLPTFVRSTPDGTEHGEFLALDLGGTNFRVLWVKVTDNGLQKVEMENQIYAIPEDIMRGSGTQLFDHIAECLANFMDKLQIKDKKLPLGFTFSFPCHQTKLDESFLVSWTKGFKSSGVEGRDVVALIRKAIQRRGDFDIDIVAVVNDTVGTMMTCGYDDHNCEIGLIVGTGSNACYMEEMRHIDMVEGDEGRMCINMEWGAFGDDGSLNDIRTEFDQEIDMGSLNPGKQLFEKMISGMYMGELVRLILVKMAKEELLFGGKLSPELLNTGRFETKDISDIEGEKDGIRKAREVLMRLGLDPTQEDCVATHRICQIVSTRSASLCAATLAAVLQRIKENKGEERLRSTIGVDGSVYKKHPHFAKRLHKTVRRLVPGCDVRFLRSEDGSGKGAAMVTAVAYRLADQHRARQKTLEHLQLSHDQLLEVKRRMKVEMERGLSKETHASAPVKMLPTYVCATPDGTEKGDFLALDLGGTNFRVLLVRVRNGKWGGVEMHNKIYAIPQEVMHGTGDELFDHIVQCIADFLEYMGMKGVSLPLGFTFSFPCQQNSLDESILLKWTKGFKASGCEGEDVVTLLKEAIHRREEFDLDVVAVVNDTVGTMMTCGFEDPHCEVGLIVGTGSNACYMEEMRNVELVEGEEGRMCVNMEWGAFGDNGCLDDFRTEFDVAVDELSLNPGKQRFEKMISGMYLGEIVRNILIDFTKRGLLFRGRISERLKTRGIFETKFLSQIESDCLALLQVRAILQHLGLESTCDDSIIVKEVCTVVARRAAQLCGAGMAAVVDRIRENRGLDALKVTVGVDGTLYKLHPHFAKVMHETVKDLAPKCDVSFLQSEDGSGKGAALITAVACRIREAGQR
Test: […] NMR CPMG transverse relaxation titration
Type: binding
Details: read-out: Kα [mol m^-3]

Kd: 960 ± 200 µM
SMILES: OC[C@H]1OC(O)C(F)(F)[C@@H](O)[C@@H]1O (mixture of isomers) [2,2-diFG, 2-deoxy-2,2-difluoro-D-glucopyranose]
